The record followed here is patent publication US9884063B2, “Amido-substituted azole compounds” (Bayer Pharma Aktiengesellschaft, priority 2014, dated 2018).

Assay [1] has as its system wildtype Wnt signaling cascade. In words: HEK293 TOP Assay (Super TopFlash luciferase reporter, Wnt-3a stimulated). Conditions: Homo sapiens, HEK293, 16 h, HEK293 TOP reporter cell line, Wnt-3a at EC50, 16 hours incubation, compound dilution series 50 μM to 15 nM. The class given is cell-based. The procedure, abridged:
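HEK293 cells stably carrying Super TopFlash (TOP) or FOP reporter, stimulated with recombinant human Wnt-3a (2500–5 ng/ml, two-fold steps). Both lines incubated in parallel with compound from 50 μM to 15 nM (3.16-fold) in CAFTY buffer pH 7.4 with 2 mM Ca2+ and 0.01% BSA; selectivity judged TOP vs FOP.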

A further assay deals with T1, TNKS2 (Homo sapiens, UniProt Q9H2K2).
T1 sequence (Q9H2K2 1-1166): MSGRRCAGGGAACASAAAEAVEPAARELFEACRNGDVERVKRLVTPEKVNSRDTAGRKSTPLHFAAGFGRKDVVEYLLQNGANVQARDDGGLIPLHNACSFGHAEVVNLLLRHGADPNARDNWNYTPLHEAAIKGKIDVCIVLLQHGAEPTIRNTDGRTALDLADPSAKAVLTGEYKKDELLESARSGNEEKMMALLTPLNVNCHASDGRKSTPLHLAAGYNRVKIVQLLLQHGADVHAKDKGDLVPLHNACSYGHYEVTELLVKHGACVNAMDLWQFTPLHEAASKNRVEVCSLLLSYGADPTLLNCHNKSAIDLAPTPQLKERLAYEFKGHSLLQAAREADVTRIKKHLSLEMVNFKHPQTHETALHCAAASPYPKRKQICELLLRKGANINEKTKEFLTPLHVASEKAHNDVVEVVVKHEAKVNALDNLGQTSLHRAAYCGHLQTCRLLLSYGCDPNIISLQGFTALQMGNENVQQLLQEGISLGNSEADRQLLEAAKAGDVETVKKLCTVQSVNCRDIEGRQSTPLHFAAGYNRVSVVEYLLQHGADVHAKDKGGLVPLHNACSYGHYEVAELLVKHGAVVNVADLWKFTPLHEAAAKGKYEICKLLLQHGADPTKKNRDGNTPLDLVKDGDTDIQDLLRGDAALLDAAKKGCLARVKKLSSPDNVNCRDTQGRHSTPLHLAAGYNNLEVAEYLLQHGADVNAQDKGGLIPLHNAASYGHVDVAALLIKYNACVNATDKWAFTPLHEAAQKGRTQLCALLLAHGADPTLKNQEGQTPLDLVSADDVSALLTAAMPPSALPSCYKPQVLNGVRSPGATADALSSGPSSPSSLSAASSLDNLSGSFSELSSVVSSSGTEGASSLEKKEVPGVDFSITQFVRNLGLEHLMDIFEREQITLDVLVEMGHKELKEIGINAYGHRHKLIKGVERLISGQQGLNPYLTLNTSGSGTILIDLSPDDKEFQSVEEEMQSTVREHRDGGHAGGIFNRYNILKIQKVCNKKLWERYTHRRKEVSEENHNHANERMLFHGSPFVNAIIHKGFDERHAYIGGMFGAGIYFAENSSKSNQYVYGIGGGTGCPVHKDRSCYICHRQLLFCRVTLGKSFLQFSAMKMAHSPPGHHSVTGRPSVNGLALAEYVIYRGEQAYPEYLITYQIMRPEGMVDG
Put plainly: Modified TNKS2 Assay 3 (BPS kit #80578, biotin-NAD+, 96 well). The class given is biochemical. Conditions: human TNKS2, BPS kit #80578, 96 well. Here is the method: The potency of the compounds against human TNKS2 according to the invention was assessed using a commercially available biotin/streptavidin binding assay kits from BPS Bioscience, San Diego, USA (Catalog #80578 for TNKS2). The incorporation of a biotin-labeled NAD+ during the […] catalyzed ribosylation of a suitable protein substrate was detected using with a streptavidin-HRP coupled chemi-luminescent readout. The intensity of the readout signal is proportional to the incorporated NAD^+. Inhibition of TNKS2 leads to a decreased incorporation of NAD^+ and consequently to a lower readout signal intensity in the corresponding TNKS2 assays. The concentration of a test compound that inhibits the enzyme activity by 50% (corresponds to half of the normed readout signal intensity) is reported as IC50. The assay conducted in a 96 well MTP format according to the manufacturer's protocol and using a BMG Pherastar MTP reader [BMG-Labtech, Offenburg, Germany].

Assay [2] relates to HEK293 FOP control reporter cell line. In words: HEK293 FOP Assay (FOP control vector luciferase reporter). It counts as cell-based. The settings on record: Homo sapiens; HEK293 FOP control reporter cell line, 16 hours incubation, compound dilution series 50 μM to 15 nM. The procedure, abridged:
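Stable HEK293 line carrying the FOP vector (randomized, non-functional TCF sites; Geneticin-selected) was run in parallel with the TOP line. Cells were plated 24 h ahead at 10000/well and given recombinant human Wnt-3a at 2500–5 ng/ml. Compounds were tested at 50 μM–15 nM (3.16-fold steps) in CAFTY buffer, pH 7.4, with 2 mM Ca2+ and 0.01% BSA.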

Regarding `CN1CCN(CCNC(=O)c2[nH]cnc2C(=O)Nc2ccc(NC(=O)c3ccc(F)cc3Cl)cc2)CC1` [Example 238, N^4-{4-[(2-chloro-4-fluorobenzoyl)amino]phenyl}-N^5-[2-(4-methylpiperazin-1-yl)ethyl]-1H-imidazole-4,5-dicarboxamide], the IC50 amounted to 0.18 µM in assay [1], 0.002 µM at TNKS2 and 29 µM in assay [2].
The matching figures for `O=C(Nc1ccc(NC(=O)c2nc[nH]c2C(=O)NCCN2CCC2)cc1)c1ccccc1Cl` [Example 190, N^5-[2-(azetidin-1-yl)ethyl]-N4-{4-[(2-chlorobenzoyl)amino]phenyl}-1H-imidazole-4,5-dicarboxamide]: 0.19 µM, 0.002 µM and 18 µM.
As to `CC(CN1CCOCC1)NC(=O)c1[nH]cnc1C(=O)Nc1ccc(NC(=O)c2ccccc2Cl)cc1` (stereo not shown) [Example 162, N^4-{4-[(2-chlorobenzoyl)amino]phenyl}-N^5-[1-(morpholin-4-yl)propan-2-yl]-1H-imidazole-4,5-dicarboxamide], the IC50 worked out at 0.27 µM in assay [1] and 0.02 µM against TNKS2.
`CC1CCCCN1CCNC(=O)c1[nH]cnc1C(=O)Nc1ccc(NC(=O)c2ccccc2Cl)cc1` (stereo not shown) [Example 153, N^4-{4-[(2-chlorobenzoyl)amino]phenyl}-N^5-[2-(2-methylpiperidin-1-yl)ethyl]-1H-imidazole-4,5-dicarboxamide]: the IC50 in assay [1] came out at 0.19 µM; against TNKS2 it was 0.005 µM; in assay [2] it was 35 µM.
On to `CNC(=O)c1nc[nH]c1C(=O)Nc1ccc(NC(=O)c2ccc(F)cc2Cl)c(F)c1` [Example 72, N^5-{4-[(2-chloro-4-fluorobenzoyl)amino]-3-fluorophenyl}-N^4-methyl-1H-imidazole-4,5-dicarboxamide], for which the IC50 in assay [1] stood at 0.49 µM; against TNKS2, 0.06 µM.
For the compound `CC1CCCCN1CCNC(=O)c1[nH]cnc1C(=O)Nc1ccc(NC(=O)c2ccc(F)cc2Cl)cc1` (stereo not shown) [Example 191, N^4-{4-[(2-chloro-4-fluorobenzoyl)amino]phenyl}-N^5-[2-(2-methylpiperidin-1-yl)ethyl]-1H-imidazole-4,5-dicarboxamide], the IC50 in assay [1] was 0.04 µM; on TNKS2 it was 0.002 µM; in assay [2], 31 µM.
For the compound `CC(CNC(=O)c1[nH]cnc1C(=O)Nc1ccc(NC(=O)c2ccc(F)cc2Cl)cc1)N1CCCCC1` (stereo not shown) [Example 170, N^4-{4-[(2-chloro-4-fluorobenzoyl)amino]phenyl}-N^5-[2-(piperidin-1-yl)propyl]-1H-imidazole-4,5-dicarboxamide], the IC50 in assay [1] is 0.18 µM; against TNKS2, 0.002 µM.
For `O=C(Nc1ccc(NC(=O)c2nc[nH]c2C(=O)NCCN2CCCC2)cc1)c1ccccc1Cl` [Example 168, N^4-{4-[(2-chlorobenzoyl)amino]phenyl}-N^5-[2-(pyrrolidin-1-yl)ethyl]-1H-imidazole-4,5-dicarboxamide], the IC50 in assay [1] is 0.08 µM; against TNKS2, less than 0.0005 µM; in assay [2], 27 µM.
The matching figures for `O=C(Nc1ccc(NC(=O)c2nc[nH]c2C(=O)NCCCCN2CCCCC2)cc1)c1ccc(F)cc1Cl` [Example 196, N^4-{4-[(2-chloro-4-fluorobenzoyl)amino]phenyl}-N^5-[4-(piperidin-1-yl)butyl]-1H-imidazole-4,5-dicarboxamide]: 0.65 µM, 0.02 µM and 30 µM.
Take `O=C(Nc1ccc(NC(=O)c2nc[nH]c2C(=O)NCCN2CCC(O)CC2)cc1)c1ccccc1Cl` [Example 197, N^4-{4-[(2-chlorobenzoyl)amino]phenyl}-N^5-[2-(4-hydroxypiperidin-1-yl)ethyl]-1H-imidazole-4,5-dicarboxamide]: the IC50 in assay [1] was found to be 0.14 µM; against TNKS2 it was 0.001 µM.
Take `O=C(Nc1ccc(NC(=O)c2nc[nH]c2C(=O)NCCN2CCCC(O)C2)cc1)c1ccc(F)cc1Cl` (stereo not shown) [Example 229, N^4-{4-[(2-chloro-4-fluorobenzoyl)amino]phenyl}-N^5-[2-(3-hydroxypiperidin-1-yl)ethyl]-1H-imidazole-4,5-dicarboxamide]: the IC50 in assay [1] was 0.11 µM; at TNKS2, 0.004 µM; in assay [2] it was 44.5 µM.
As for `O=C(Nc1ccc(NC(=O)c2nc[nH]c2C(=O)NCCN2CCC2)cc1)c1ccc(F)cc1Cl` [Example 198, N^5-[2-(azetidin-1-yl)ethyl]-N^4-{4-[(2-chloro-4-fluorobenzoyl)amino]phenyl}-1H-imidazole-4,5-dicarboxamide], the IC50 in assay [1] was 0.11 µM; on TNKS2, less than 0.0005 µM.
Take `CC1CCN(CCNC(=O)c2[nH]cnc2C(=O)Nc2ccc(NC(=O)c3ccccc3Cl)cc2)CC1` [Example 163, N^4-{4-[(2-chlorobenzoyl)amino]phenyl}-N^5-[2-(4-methylpiperidin-1-yl)ethyl]-1H-imidazole-4,5-dicarboxamide]: the IC50 in assay [1] worked out at 0.1 µM; on TNKS2, 0.01 µM; in assay [2], 37 µM.
Consider `O=C(Nc1ccc(NC(=O)c2nc[nH]c2C(=O)NCCCN2CCOCC2)cc1)c1ccc(F)cc1Cl` [Example 204, N^4-{4-[(2-chloro-4-fluorobenzoyl)amino]phenyl}-N^5-[3-(morpholin-4-yl)propyl]-1H-imidazole-4,5-dicarboxamide], for which the results for the IC50 (in assay [1]; against TNKS2; in assay [2]) were 0.31 µM, 0.02 µM and 34.5 µM, respectively.
